# Source: ChEMBL document CHEMBL3600358, “Design and synthesis of novel substituted naphthyridines as potential c-Met kinase inhibitors based on MK-2461” (Bioorg Med Chem Lett, 2015)
# What was measured:
# A549 = assay: Antiproliferative activity against human A549 cells incubated for 48 hrs by MTT assay; type: functional, cell-based; settings: A549, 48 h
# HeLa [1] = assay: Antiproliferative activity against human HeLa cells incubated for 48 hrs by MTT assay; type: functional, cell-based
# HeLa [2] = assay: Effect on total c-Met protein level in human HeLa cells at 1.25 to 20 uM incubated for 24 hrs by Western blot method; type: cell-based
IC50 (A549),IC50 (HeLa [1]),Compound,Activity (HeLa [2])
> 50 µM,> 50 µM,Cn1cc(-c2cnc3ccnc(NC(=O)c4cccnc4)c3c2)cn1,–
> 50 µM,> 50 µM,Cn1cc(-c2cnc3ccc(NC(=O)c4ccc(F)cc4)nc3c2)cn1,–
45.5 µM,> 50 µM,Cc1ccc(S(=O)(=O)Nc2ccc3ncc(-c4cnn(C)c4)cc3n2)cc1,–
> 50 µM,> 50 µM,CC(=O)Nc1nccc2ncc(-c3cnn(C)c3)cc12,–
> 50 µM,> 50 µM,Cn1cc(-c2cnc3ccc(NS(=O)(=O)c4ccc(C(F)(F)F)cc4)nc3c2)cn1,–
> 50 µM,> 50 µM,COc1ccc(CNc2ccc3ncc(-c4cnn(C)c4)cc3n2)cc1,–
> 50 µM,> 50 µM,Cn1cc(-c2cnc3ccc(NC(=O)c4cccnc4)nc3c2)cn1,–
33.4 µM,40.8 µM,Cn1cc(-c2cnc3ccnc(N)c3c2)cn1,–
> 50 µM,> 50 µM,Cc1ccc(S(=O)(=O)Nc2nccc3ncc(-c4cnn(C)c4)cc23)cc1,–
> 50 µM,> 50 µM,Cn1cc(-c2cnc3ccc(NS(=O)(=O)c4ccc(Cl)cc4Cl)nc3c2)cn1,–
> 50 µM,42.2 µM,COc1ccc(CNc2nccc3ncc(-c4cnn(C)c4)cc23)cc1,–
> 50 µM,> 50 µM,Cn1cc(-c2cnc3ccnc(NS(=O)(=O)c4ccc(C(F)(F)F)cc4)c3c2)cn1,–
> 50 µM,> 50 µM,CC(=O)Nc1ccc2ncc(-c3cnn(C)c3)cc2n1,–
> 50 µM,46.6 µM,Cn1cc(-c2cnc3ccc(NCc4ccc(F)cc4)nc3c2)cn1,–
9.4 µM,17.4 µM,Cn1cc(-c2cnc3ccnc(NS(=O)(=O)c4cccs4)c3c2)cn1,–
> 50 µM,> 50 µM,Cn1cc(-c2cnc3ccc(N)nc3c2)cn1,–
> 50 µM,> 50 µM,Cn1cc(-c2cnc3ccnc(NS(=O)(=O)c4c(Cl)cccc4Cl)c3c2)cn1,–
> 50 µM,> 50 µM,COc1ccc(C(=O)Nc2nccc3ncc(-c4cnn(C)c4)cc23)cc1,–
> 50 µM,> 50 µM,Cn1cc(-c2cnc3ccc(NC(=O)C4CC4)nc3c2)cn1,–
> 50 µM,> 50 µM,Cn1cc(-c2cnc3ccc(NCC4CC4)nc3c2)cn1,–
5.2 µM,9.2 µM,Cn1cc(-c2cnc3ccnc(NCc4ccc(F)cc4)c3c2)cn1,Non-toxic
> 50 µM,> 50 µM,Cn1cc(-c2cnc3ccnc(NC(=O)c4ccc(F)cc4)c3c2)cn1,–
6.4 µM,4.9 µM,COc1ccc(C(=O)Nc2ccc3ncc(-c4cnn(C)c4)cc3n2)cc1,–
8.9 µM,7.4 µM,Cn1cc(-c2cnc3ccnc(NCC4CC4)c3c2)cn1,–
40.7 µM,> 50 µM,CCNc1nccc2ncc(-c3cnn(C)c3)cc12,–
> 50 µM,> 50 µM,CCNc1ccc2ncc(-c3cnn(C)c3)cc2n1,–
> 50 µM,> 50 µM,Cn1cc(-c2cnc3ccnc(NC(=O)C4CC4)c3c2)cn1,–
39.5 µM,38.4 µM,Cn1cc(-c2cnc3ccc(NS(=O)(=O)c4cccs4)nc3c2)cn1,–
